Here are results for 8 compounds from patent US20250387400A1, “TYK2 INHIBITORS” (BIOGEN MA INC., priority 2022, published 2025).

Like-named read-outs stand apart in the source and are kept apart here.

Holding throughout (type): biochemical
In test [1] the target is T1, catalytic kinase (JH1) domain of human TYK2 (Homo sapiens, UniProt P29597).
T1 construct: recombinantly generated catalytic kinase (also known as JH1) domain of human JAK1, JAK2, JAK3 and TYK2
T1 sequence (P29597 897-1176 limits assumed): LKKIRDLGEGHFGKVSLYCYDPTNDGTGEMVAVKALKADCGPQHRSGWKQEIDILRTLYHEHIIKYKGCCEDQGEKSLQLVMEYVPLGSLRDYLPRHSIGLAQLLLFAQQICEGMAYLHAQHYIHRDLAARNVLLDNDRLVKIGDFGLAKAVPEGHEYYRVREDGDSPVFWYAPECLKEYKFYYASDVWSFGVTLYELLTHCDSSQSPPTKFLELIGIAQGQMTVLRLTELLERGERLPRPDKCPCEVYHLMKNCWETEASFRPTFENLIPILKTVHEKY
The test can be described thus: ADP-Glo kinase assay, TYK2 kinase domain. In general terms: ADP-Glo turns the ADP formed in a reaction into a luminescent signal.

Test [2] concerns the target T2, catalytic kinase (JH1) domain of human JAK2 (Homo sapiens, UniProt O60674).
T2 construct: Catalytic activities of recombinant JAK2, JAK3 and TYK2 kinase domain
The test is described as follows: ADP-Glo kinase assay, JAK2 kinase domain.

The target of test [3] is T3, catalytic kinase (JH1) domain of human JAK3 (Homo sapiens, UniProt P52333).
T3 construct: Catalytic activities of recombinant JAK2, JAK3 and TYK2 kinase domain
T3 sequence (P52333 822-1111 limits assumed): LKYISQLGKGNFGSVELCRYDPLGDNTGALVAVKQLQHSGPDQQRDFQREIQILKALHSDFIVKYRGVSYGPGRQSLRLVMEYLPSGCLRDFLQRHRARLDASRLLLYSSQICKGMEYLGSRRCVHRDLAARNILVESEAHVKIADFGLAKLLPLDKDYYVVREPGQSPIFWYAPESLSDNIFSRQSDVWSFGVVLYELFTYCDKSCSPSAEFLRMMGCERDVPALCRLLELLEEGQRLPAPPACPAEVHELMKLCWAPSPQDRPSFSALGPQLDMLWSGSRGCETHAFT
The test is described as follows: ADP-Glo kinase assay, JAK3 kinase domain.

Test [4] addresses T4, catalytic kinase (JH1) domain of human JAK1 (Homo sapiens, UniProt P23458).
T4 construct: 4 nM of recombinant JAK1 kinase domain is used to phosphorylate
The test is described as follows: ADP-Glo kinase assay, JAK1 kinase domain.

The mark [5] stands for this setting: 2 nM recombinant TYK2 kinase domain, 50 μM JAK3-974 peptide, 10 μM ATP, 100 minutes, read-out: TYK2 biochem IC50 (nM) Mean.
The mark [6] stands for this setting: 0.2 nM recombinant JAK2 kinase domain, 50 μM JAK3-974 peptide, 15 μM ATP, 100 minutes, read-out: JAK2 biochem IC50 (nM) Mean.
[7] abbreviates: 0.3 nM recombinant JAK3 kinase domain, 50 μM JAK3-974 peptide, 4 μM ATP, 100 minutes, read-out: JAK3 biochem IC50 (nM) Mean.
Where [8] appears, read: 4 nM recombinant JAK1 kinase domain, 50 μM JAK3-342 peptide, 35 μM ATP, 100 minutes, read-out: JAK1 biochem IC50 (nM) Mean.

T2 sequence (O60674 849-1124 limits assumed): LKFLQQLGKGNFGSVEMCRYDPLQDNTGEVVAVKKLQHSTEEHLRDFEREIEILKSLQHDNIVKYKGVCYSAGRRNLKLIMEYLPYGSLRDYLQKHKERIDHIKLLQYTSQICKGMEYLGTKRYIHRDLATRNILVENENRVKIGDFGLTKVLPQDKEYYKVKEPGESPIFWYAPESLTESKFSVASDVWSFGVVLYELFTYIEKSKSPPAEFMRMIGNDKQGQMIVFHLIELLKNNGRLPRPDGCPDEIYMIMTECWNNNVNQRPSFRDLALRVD
T4 sequence (P23458 875-1153 limits assumed): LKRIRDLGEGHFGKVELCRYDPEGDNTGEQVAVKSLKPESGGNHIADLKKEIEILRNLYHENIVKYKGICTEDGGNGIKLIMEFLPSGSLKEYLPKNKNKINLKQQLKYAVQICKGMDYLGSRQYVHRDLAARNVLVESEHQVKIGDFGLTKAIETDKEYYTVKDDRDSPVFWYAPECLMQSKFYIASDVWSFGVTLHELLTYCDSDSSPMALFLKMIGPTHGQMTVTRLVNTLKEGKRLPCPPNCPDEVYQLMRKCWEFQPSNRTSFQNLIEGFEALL

For `Cc1cc(-c2cc3c(N4CC5CCC(C4)N5C4CC(C#N)C4)ccnn3c2)cnn1` (centres unmarked) [Example 57, 3-(3-(6-(6-methylpyridazin-4-yl)pyrrolo[1,2-b]pyridazin-4-yl)-3,8-diazabicyclo[3.2.1]octan-8-yl)cyclobutane-1-carbonitrile], the IC50 amounted to 13 nM in test [1] (setting [5]), 108 nM in test [2] (setting [6]), 690 nM in test [3] (setting [7]) and 134 nM in test [4] (setting [8]).

With `Cc1cc(-c2cc3c(N4CC5CCC(C4)N5[C@H]4C[C@H](C#N)C4)ccnn3c2)on1` [Example 58, (1R,3r)-3-(3-(6-(3-methylisoxazol-5-yl)pyrrolo[1,2-b]pyridazin-4-yl)-3,8-diazabicyclo[3.2.1]octan-8-yl)cyclobutane-1-carbonitrile], the IC50 in test [1] turned out to be 40.5 nM; in test [2] it was 385 nM; in test [3], 3450 nM; in test [4], 795 nM.

`Cc1cc(-c2cc3c(N4CC5CCC(C4)N5[C@H]4C[C@@H](C#N)C4)ccnn3c2)on1` [Example 59, (1S,3s)-3-(3-(6-(3-methylisoxazol-5-yl)pyrrolo[1,2-b]pyridazin-4-yl)-3,8-diazabicyclo[3.2.1]octan-8-yl)cyclobutane-1-carbonitrile]: the 50% inhibitory concentration (IC50) was found to be 4.25 nM in test [1], 26 nM in test [2], 220 nM in test [3] and 65.5 nM in test [4].

As to `N#C[C@H]1C[C@@H](N2C3CCC2CN(c2ccnn4cc(-c5cnn(C(F)F)c5)cc24)C3)C1` [Example 60, (1S,3s)-3-(3-(6-(1-(difluoromethyl)-1H-pyrazol-4-yl)pyrrolo[1,2-b]pyridazin-4-yl)-3,8-diazabicyclo[3.2.1]octan-8-yl)cyclobutane-1-carbonitrile], the 50% inhibitory concentration (IC50) was 2.38 nM in test [1] (setting [5]), 17.5 nM in test [2] (setting [6]), 132 nM in test [3] (setting [7]) and 25.5 nM in test [4] (setting [8]).

For `Cn1cc(-c2cc3c(N4CC5CCC(C4)N5[C@H]4C[C@H](C#N)C4)ncnc3[nH]2)cn1` [Example 63, (1R,3r)-3-(3-(6-(1-methyl-1H-pyrazol-4-yl)-7H-pyrrolo[2,3-d]pyrimidin-4-yl)-3,8-diazabicyclo[3.2.1]octan-8-yl)cyclobutane-1-carbonitrile], the IC50 was 260 nM in test [1] (setting [5]), 1800 nM in test [2] (setting [6]), 1650 nM in test [3] (setting [7]) and 4250 nM in test [4] (setting [8]).

Consider `Cn1cc(-c2cc3c(N4CC5CCC(C4)N5[C@H]4C[C@@H](C#N)C4)ncnc3[nH]2)cn1` [Example 64, (1S,3s)-3-(3-(6-(1-methyl-1H-pyrazol-4-yl)-7H-pyrrolo[2,3-d]pyrimidin-4-yl)-3,8-diazabicyclo[3.2.1]octan-8-yl)cyclobutane-1-carbonitrile], for which the concentration for half-maximal inhibition (IC50) in test [1] (setting [5]) amounted to 41.5 nM; in test [2] (setting [6]) it was 260 nM; in test [3] (setting [7]) it was 205 nM; in test [4] (setting [8]) it was 340 nM.

With `Cn1cc(-c2cn3nccc(N4CC5CCC(C4)N5[C@H]4C[C@@H](C#N)C4)c3n2)cn1` [Example 65, (1S,3s)-3-(3-(2-(1-methyl-1H-pyrazol-4-yl)imidazo[1,2-b]pyridazin-8-yl)-3,8-diazabicyclo[3.2.1]octan-8-yl)cyclobutane-1-carbonitrile], the IC50 came out at 70.7 nM in test [1], 293 nM in test [2], 1650 nM in test [3] and 227 nM in test [4].

Take `Cn1cc(-c2cn3nccc(N4CC5CCC(C4)N5[C@H]4C[C@H](C#N)C4)c3n2)cn1` [Example 66, (1R,3r)-3-(3-(2-(1-methyl-1H-pyrazol-4-yl)imidazo[1,2-b]pyridazin-8-yl)-3,8-diazabicyclo[3.2.1]octan-8-yl)cyclobutane-1-carbonitrile]: the IC50 in test [1] came to 3.83 nM; in test [2], 21.3 nM; in test [3], 102 nM; in test [4], 15.1 nM.

The IC50 is the concentration at which inhibition is half-maximal.
